Assays:
[1] = system: adjuvant-induced arthritis (AIA) model; test: Clinical score analysis in adjuvant-induced arthritis (AIA) model; assay type: in vivo, Lewis rats; set-up: Clinical score 9th day / Clinical score 13th day / Clinical score 16th day / Clinical score 11th day / Clinical score 15th day / Clinical score 18th day: scale not given here; conditions: for Clinical score 9th day / Clinical score 13th day / Clinical score 16th day: Mean ± SD; for Clinical score 11th day / Clinical score 15th day / Clinical score 18th day: Mean ± SEM
Experimental: (§1) Lewis rats (female, five-weeks old) were purchased from Central Lab Animal, Inc. and kept in a controlled environment with a temperature at 22±2° C., a humidity at 44-56% and a light/dark cycle of 12 hours, while being allowed to have a free access to standard diet and water for one week before an examination. Complete Freund's Adjuvant (Chondrex) containing 10 mg/mL of heat killed mycobacteria toxin was fully mixed together, after which […] thereof was taken and subcutaneously injected into each upper tail of the rats to induce arthritis therefrom.
(§2) To administer a drug of compound 374 (SM374) and evaluate an effect thereof, the rats were divided into 11 groups (9, 10 or 11 animals per group) one day before or nine days after inducing arthritis, after which each group was classified according to administered substances (vehicle, compound 374 (SM374) or methotrexate (MTX)) and administration routes (oral administration (P.O.) or intraperitoneal administration (I.P.)) as shown in a following table 13.
(§3) Also, in order to administer a drug of compounds 374, 413, 484, 530 and 652 (SM374, SM413, SM484, SM530 and SM652) and evaluate an effect thereof, the rats were divided into 13 groups (9 or 10 animals per group) eight days after inducing arthritis, and each group was classified according to administered substances (vehicle, SM374, SM413, SM484, SM530, SM652 and MTX) and administration routes (oral or intraperitoneal administration) as shown in a following table 14.
To identify the efficacy of the inventive composition on preventing or treating arthritis in an AIA model, an analysis was made on the clinical scores of rats dosed with a compound 374 (SM 374, once per day) or MTX (once per week or twice per week) from 9th day to 16th day after inducing arthritis.
Particularly, a degree of swelling, erythema, etc., in each joint of the rats were observed, after which clinical scores were calculated according to a scoring system described in a following table 15, such that the clinical scores on four joints were added up to obtain total scores for each rat (Vishwakarma et al., 2013).
To identify the efficacy of the inventive composition on preventing or treating arthritis in an AIA model, an analysis was made on the clinical scores of rats dosed with compounds 374, 413, 484, 530 and 652 (SM374, SM413, SM484, SM530 and SM652, once per day) or MIX (once per week) from 8th day to 18th day after inducing arthritis.

[2] = Analysis of body weights in AIA model; assay type: in vivo, Lewis rats; conditions: for Body weight (g) 9th day / Body weight (g) 13th day / Body weight (g) 16th day: Mean ± SD; for Body weight (g) 8th day / Body weight (g) 11th day / Body weight (g) 15th day / Body weight (g) 18th day: Table 19 study
Experimental: as §1, §2, §3
An analysis was made on the body weight of rats dosed with compound 374 (SM 374, once per day) or MIX (once per week or twice per week) from 9th day to 16th day after inducing AIA. […]

anti-CCP IgG = test: Analysis of anti-CCP IgG in plasma in AIA model (QUANTA Lite CCP3 IgG ELISA); assay type: in vivo, Lewis rats; conditions: Mean ± SD
Experimental: as §1, §2
An effect of compound 374 (SM374) and MTX on preventing or treating arthritis according to administration thereof in combination was evaluated based on analysis of anti-CCP IgG, known as a diagnosis marker for rheumatoid arthritis.
Particularly, blood was collected from each jugular vein of rats dosed with compound 374 (SM374, once per day) and MTX (once or twice per week) from 9th day to 16th day after inducing AIA, after which plasma was isolated therefrom, such that anti-CCP IgG was measured with QUANTA Lite®CCP3 (cyclic citrullinated peptide 3) IgG ELISA kit (INOVA Diagnostics Inc., U.S., catalog no. 704535) according to a protocol offered by a manufacturer thereof, wherein the results thereof are shown in FIG. 5 and Table 20.

[3] = Pharmacokinetic analysis, plasma concentration by LC/MS; assay type: in vivo; conditions: rats, MTX 1 mg/kg only
Experimental: A bioequivalence was evaluated through a pharmacokinetic test on administration of the inventive compound 374 (SM374) and MTX in combination as well as administration of MTX only.
Particularly, after administration of compound 374 (SM374) and MTX, plasma was isolated from blood collected from rats for each time slot, after which organic solvent was added into such plasma to carry out deproteinization and extraction, such that a resulting sample was subjected to quantitative analysis by means of liquid chromatography and mass spectrometer (LC/MS) along with a calibration sample treated under the same conditions, to measure a concentration of compound 374 (SM374) and MTX (FIG. 6 and Table 21) in plasma of the rats as well as each PK parameter (Table 22).

[4] = MTX 3 mg/kg twice per week I.P.
[5] = Table 17 study, MTX 1 mg/kg once per week I.P.
[6] = Table 17 study, MTX 3 mg/kg once per week I.P.

CN(Cc1cnc2nc(N)nc(N)c2n1)c1ccc(C(=O)N[C@@H](CCC(=O)O)C(=O)O)cc1 [MTX, Methotrexate]
Rate of reduction in clinical scores (%) ([1]; MTX 1 mg/kg once per week I.P., 16th day vs vehicle): 14.5%
Clinical score 9th day ([1]; MTX 1 mg/kg once per week I.P.): 0.0 ± 0.0
Clinical score 13th day ([1]; MTX 1 mg/kg once per week I.P.): 2.2 ± 1.2
Clinical score 16th day ([1]; MTX 1 mg/kg once per week I.P.): 5.9 ± 2.8
Rate of reduction in clinical scores (%) ([1]; MTX 3 mg/kg twice per week I.P., 16th day vs vehicle): 65.2%
Clinical score 9th day [1, 4]: 0.0 ± 0.0
Clinical score 13th day [1, 4]: 1.1 ± 1.6
Clinical score 16th day [1, 4]: 2.4 ± 3.0
Rate of reduction in clinical scores (%) ([1]; Table 17 study, MTX 1 mg/kg once per week I.P., 18th day vs vehicle): 23.0%
Clinical score 11th day [1, 5]: 0.0 ± 0.0
Clinical score 15th day [1, 5]: 1.3 ± 0.9
Clinical score 18th day [1, 5]: 4.7 ± 1.9
Rate of reduction in clinical scores (%) ([1]; Table 17 study, MTX 3 mg/kg once per week I.P., 18th day vs vehicle): 96.7%
Clinical score 11th day [1, 6]: 0.0 ± 0.0
Clinical score 15th day [1, 6]: 0.0 ± 0.0
Clinical score 18th day [1, 6]: 0.2 ± 0.2 #
Body weight (g) 9th day ([2]; MTX 1 mg/kg once per week I.P.): 157.3 ± 11.9 g
Body weight (g) 13th day ([2]; MTX 1 mg/kg once per week I.P.): 160.6 ± 4.2 g
Body weight (g) 16th day ([2]; MTX 1 mg/kg once per week I.P.): 153.8 ± 7.9 g
Body weight (g) 9th day [2, 4]: 157.2 ± 7.3 g
Body weight (g) 13th day [2, 4]: 159.6 ± 5.7 g
Body weight (g) 16th day [2, 4]: 157.6 ± 5.7 g
Body weight (g) 8th day ([2]; MTX 1 mg/kg once per week I.P.): 151.2 ± 2.4 g
Body weight (g) 11th day ([2]; MTX 1 mg/kg once per week I.P.): 152.1 ± 2.3 g
Body weight (g) 15th day ([2]; MTX 1 mg/kg once per week I.P.): 156.9 ± 2.8 g
Body weight (g) 18th day ([2]; MTX 1 mg/kg once per week I.P.): 155.0 ± 3.9 g
Body weight (g) 8th day ([2]; MTX 3 mg/kg once per week I.P.): 151.2 ± 2.4 g
Body weight (g) 11th day ([2]; MTX 3 mg/kg once per week I.P.): 151.6 ± 3.8 g
Body weight (g) 15th day ([2]; MTX 3 mg/kg once per week I.P.): 160.0 ± 2.9 g
Body weight (g) 18th day ([2]; MTX 3 mg/kg once per week I.P.): 164.7 ± 2.5 g
Anti-CCP IgG (RU) (anti-CCP IgG; MTX 1 mg/kg): 208.0 ± 24.3 RU
Anti-CCP IgG (RU) (anti-CCP IgG; MTX 3 mg/kg): 104.6 ± 56.7 RU
AUC(0-inf) ([3]; rat, plasma): 1510 ± 231 ng·h/mL
Cmax ([3]; rat, plasma): 1300 ± 97.3 ng/mL
Tmax ([3]; rat, plasma): 30 min
half-life ([3]; rat, plasma): 54 min
AUC(0-t) ([3]; rat, plasma, read-out: AUC0→8h): 1500 ± 231 ng·h/mL
concentration at 0.5 hr ([3]; rat, plasma, time 0.5 hr): 1300 ± 97.3 ng/mL
concentration at 1 hr ([3]; rat, plasma, time 1 hr): 747 ± 129 ng/mL
concentration at 2 hr ([3]; rat, plasma, time 2 hr): 245 ± 108 ng/mL
concentration at 4 hr ([3]; rat, plasma, time 4 hr): 24.4 ± 9.7 ng/mL
concentration at 8 hr ([3]; rat, plasma, time 8 hr): 3 ± 0.3 ng/mL
Plasma concentration (ng/mL) ([3]; time 0 hr): BLOQ

From patent US20220296599A1, “Pharmaceutical composition comprising histone deacetylase inhibitor and methotrexate” (Chong Kun Dang Pharmaceutical Corp., priority 2018, published 2022)
